For this assay, the target named is T1, human chymase (Homo sapiens, UniProt P23946).
T1 construct: 60 g human tonsillar gland was finely divided by scissors and a scalpel; from tissue; host or cells: human tonsillar gland
T1 sequence (P23946 22-247): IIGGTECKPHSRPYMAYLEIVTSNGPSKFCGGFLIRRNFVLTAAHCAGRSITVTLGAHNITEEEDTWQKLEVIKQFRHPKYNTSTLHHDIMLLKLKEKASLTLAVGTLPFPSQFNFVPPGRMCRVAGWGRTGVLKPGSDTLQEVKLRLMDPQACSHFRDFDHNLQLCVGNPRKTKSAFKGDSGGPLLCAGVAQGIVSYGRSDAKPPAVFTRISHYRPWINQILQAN
In words: inhibitory activity on human chymase (angiotensin I as substrate, angiotensin II determined by HPLC). Format: biochemical. Conditions: for inhibitory activity on chymase (in words): chymase species not given; for pIC50: first table, pH 8.0, 37° C., 15 min, read-out: 50% Inhibitory concentration (IC50) human chymase. The text has this: It is known that chymase is present in tissues of various animals, and its isolation and purification methods are described in Anal. Biochem., 137, 449 (1984) and FEBS Letters, 323, 119 (1993). In the present invention, chymase was purified by the methods described in these literatures, and the present compounds were examined for inhibitory activity on human chymase or dog chymase. The specific methods are as follows:
60 g human tonsillar gland was finely divided by scissors and a scalpel, suspended in 0.1 M phosphate buffer (pH 8.0), and disrupted by a Polytron homogenizer for 5 minutes to prepare a crude chymase enzyme solution. The solution was centrifuged at 22000×g for 30 min, and the precipitate was used as a chymase enzyme fraction. The precipitate was washed by repeating the above procedure twice, and then suspended in 0.1 M phosphate buffer (pH 8.0) containing 2 M sodium chloride and 5% ammonium sulfate. The suspension was centrifuged at 27000×g for 20 min to give a supernatant as a chymase fraction. The supernatant was concentrated by ultrafiltration, applied to a G2000SW-XL column (6.0×300 mm), and eluted with 0.1 M phosphate buffer (pH 8.0). An active fraction decomposing succinyl leucyl leucyl valyl tyrosyl methylcoumarylamide (hereinafter referred to as the synthetic chymase substrate, made by Peptide Kenkyusho) was recovered, concentrated and used as a purified human chymase for the following activity measurement.
The inhibitory activity on the human chymase and dog chymase was measured using angiotensin I (made by Peptide Kenkyusho) for a substrate. 200 μl of 0.15 M Tris-HCl buffer (pH 8.0) containing 0.1 mM angiotensin I, 0.0002 μl of human or dog chymase solution and 2 μl of a dimethylsulfoxide solution of the present compound were added into a 1.5 ml test tube and incubated at 37° C. for 15 min. At the end of the reaction, produced angiotensin II was immediately determined by high performance liquid chromatography […] the chymase activity to calculate 50% inhibitory concentration (IC50: nM).
The test was conducted several times. Chymase was prepared for each test in the manner described above. The compounds prepared in the above-described Examples were used for the test.

pIC50: −log10 of the molar value.

As for `CC(=O)OCc1cnc(-c2ccccc2)n(CC(=O)NC(Cc2ccccc2)C(=O)C(=O)CCCOc2ccccn2)c1=O` (stereo not shown) [Compound 1, 2-(5-acetyloxymethyl-4-oxo-2-phenyl-3,4-dihydro-pyrimidin-3-yl)-N-{2,3-dioxo-1-phenylmethyl-6-(2-pyridyloxy)}hexylacetamide], the “inhibitory activity on chymase (in words)” value (“inhibitory activity” for short) was “powerful inhibitory activity on chymase” and the pIC50 is 7.59.
As to `O=C(Cn1c(-c2ccccc2)ncc(CO)c1=O)NC(Cc1ccccc1)C(=O)C(=O)CCCOc1ccccn1` (stereo not shown) [Compound 2, 2-(5-hydroxymethyl-4-oxo-2-phenyl-3,4-dihydropyrimidin-3-yl)-N-{2,3-dioxo-1-phenylmethyl-6-(2-pyridyloxy)} hexylacetamide], the “inhibitory activity” value is recorded as “powerful inhibitory activity on chymase” and the pIC50 is 7.57.
For `COCc1cnc(-c2ccccc2)n(CC(=O)NC(Cc2ccccc2)C(=O)C(=O)CCCOc2ccccn2)c1=O` (stereo not shown) [Compound 3, 2-(5-methoxymethyl-4-oxo-2-phenyl-3,4-dihydropyrimidin-3-yl)-N-{2,3-dioxo-1-phenylmethyl-6-(2-pyridyloxy)} hexylacetamide], the “inhibitory activity” value was “powerful inhibitory activity on chymase” and the pIC50 is 7.66.
`CCOC(=O)c1cnc(-c2ccccc2)n(CC(=O)NC(Cc2ccccc2)C(=O)C(=O)CCCOc2ccccn2)c1=O` (stereo not shown) [Compound 4, 2-(5-ethoxycarbonyl-4-oxo-2-phenyl-3,4-dihydro-pyrimidin-3-yl)-N-{2,3-dioxo-1-phenylmethyl-6-(2-pyridyl-oxy)}hexylacetamide]: the pIC50 was 6.31.
